From US8076310B2, “Phosphonate nucleosides useful as active ingredients in pharmaceutical compositions for the treatment of viral infections, and intermediates for their production” (K.U.Leuven Research & Development, priority 2004, dated 2011) come the findings set out here.

The target of this experiment is T1, HIV reverse transcriptase (Human immunodeficiency virus type 1 group M subtype B, UniProt P04585).
T1 construct: 0.025 U/μL HIV reverse transcriptase
Briefly: Steady-state kinetics of nucleotide incorporation in a DNA hybrid by HIV reverse transcriptase. In kind it is biochemical. The settings on record: 0.025 U/μL HIV reverse transcriptase, 250 nM primer/template, average of three determinations. Here is the method: Determination of Km and Kcat values for the incorporation of dATP and PMDTApp in a DNA hybrid was carried out under steady-state conditions as described by Creighton et al. in Methods in Enzymology (1995) 262:232-256. […] Results given below are the average of three independent determinations. The reaction mixture contained 250 nM primer/template complex 0.025 U/μL HIV reverse transcriptase, and the triphosphate nucleotides to be incorporated (dATP and PMDTApp, respectively). The template sequence and the primer sequence used in this experiment are shown below. The reaction was quenched after 1, 2 and 3 minutes by adding a double volume of stop solution (90% formamide, 0.05% bromophenol blue, 0.05% xylene cyanol and 50 mM EDTA). Samples were analyzed by gel electrophoresis on a 16% polyacrylamide ureum gel in TBE buffer (89 mM Tris-borate, 2 mM EDTA buffer, pH 8.3) after heating the samples for 5 minutes at 70° C. Products were visualised by phosphorimaging. The amount of radioactivity in the bands corresponding to the products of the enzymatic reactions was determined using the Optiquant Image Analysis Software (Packard). Rate profiles were determined using GraphPad Prism® software.

The structures appear in SMILES notation.

Usually Km stands for the substrate concentration at which the rate is half of its maximum. As to `Nc1ncnc2c1ncn2[C@H]1C[C@H](O)[C@@H](COP(=O)(O)OP(=O)(O)OP(=O)(O)O)O1` [dATP, deoxy-adenosine triphosphate], the Kcat amounted to 0.66 min − 1 and the Km stood at 0.1 µM.
